Measurements as given in US6979686B1, “Substituted pyrazoles as p38 kinase inhibitors” (Pharmacia Corporation, priority 2001, dated 2005).
Like-named read-outs stand apart in the source and are kept apart here.

Molecular target: T1, human p38 kinase alpha (Homo sapiens, UniProt Q16539)
T1 construct: GST (N, cleaved yes); made in house; host or cells: E. coli DH10B
Test: p38 kinase in vitro assay, phosphorylation of biotinylated PHAS-I with 32P-ATP
Assay type: biochemical
Conditions: for IC50: read-out: P38 alpha kinase IC50; for P38 alpha kinase IC50, uM or % inhib @ conc. (uM): % inhib / P38 alpha kinase % inhib @ conc.: @ 10.0 uM
Description: The coding region of the human p38a cDNA was obtained by PCR-amplification from RNA isolated from the human monocyte cell line THP.1. […] Random primer, dNTP's and Superscript™ reagents were all purchased from Life-Technologies, Gaithersburg, Mass. The reaction was incubated at 42° C. for 1 hour. Amplification of p38 cDNA was performed by aliquoting 5 μl of the reverse transcriptase reaction into a 100 μl PCR reaction containing the following: 80 μl dH2O, 2 μl 50 mM DNTP's, 1 μl each of forward and reverse primers (50 pmol/μl), 10 μl of 10×buffer and 1 μl Expand™ polymerase (Boehringer Mannheim). The PCR primers incorporated BamHI sites onto the 5′ and 3′ end of the amplified fragment, and were purchased from Genosys. […] The PCR amplification was carried out in a DNA Thermal Cycler (Perkin Elmer) by repeating 30 cycles of 94° C. for 1 minute, 60° C. for 1 minute and 68° C. for 2 minutes. After amplification, excess primers and unincorporated dNTP's were removed from the amplified fragment with a Wizard™ PCR prep (Promega) and digested with BamHI (New England Biolabs). The BamHI digested fragment was ligated into BamHI digested PGEX 2T plasmid DNA (PharmaciaBiotech) using T-4 DNA ligase (New England Biolabs) as described by T. Maniatis, Molecular Cloning: A Laboratory Manual, 2nd ed. […] The ligation reaction was transformed into chemically competent E. coli DH10B cells purchased from Life-Technologies following the manufacturer's instructions. Plasmid DNA was isolated from the resulting bacterial colonies using a Promega Wizard™ miniprep kit.
Expression of Human p38a:
Overnight cultures were grown in-Luria Broth (LB) containing […] ampicillin. The next day, 500 ml of fresh LB was inoculated with 10 ml of overnight culture, and grown in a 2 liter flask at 37° C. with constant shaking until the culture reached an absorbance of 0.8 at 600 nm. Expression of the fusion protein was induced by addition of isopropyl b-D-thiogalactosidse (IPTG) to a final concentration of 0.05 mM. The cultures were shaken for three hours at room temperature, and the cells were harvested by centrifugation. The cell pellets were stored frozen until protein purification.
Purification of p38 Kinase-α:
All chemicals were from Sigma Chemical Co. unless noted. Twenty grams of E. coli cell pellet collected from five 1 L shake flask fermentations was resuspended in a volume of PBS (140 mM NaCl, 2.7 mM KCl, 10 mM Na2HPO4, 1.8 mM KH2PO4, pH 7.3) up to 200 ml. The cell suspension was adjusted to 5 mM DTT with 2 M DTT and then split equally into five 50 ml Falcon conical tubes. The cells were sonnicated (Ultrasonics model W375) with a 1 cm probe for 3×1 minutes (pulsed) on ice. Lysed cell material was removed by centrifugation (12,000×g, 15 minutes) and the clarified supernatant applied to glutathione-sepharose resin (Pharmacia).
Glutathione-sepharose Affinity Chromatography:
The resin was collected by centrifugation (600×g, 5 min) and washed with 2×150 ml PBS/1% Triton X-100, followed by 4×40 ml PBS. To cleave the p38 kinase from the GST-p38 fusion protein, the glutathione-sepharose resin was resuspended in 6 ml PBS containing 250 units thrombin protease (Pharmacia, specific activity>7500 units/mg) and mixed gently for 4 hours at room temperature. The glutathione-sepharose resin was removed by centrifugation (600×g, 5 min) and washed 2×6 ml with PBS. The PBS wash fractions and digest supernatant containing p38 kinase protein were pooled and adjusted to 0.3 mM PMSF.
Mono O Anion Exchange Chromatography:
The thrombin-cleaved p38 kinase was further purified by FPLC-anion exchange chromatography.

[1] = in vitro P38-alpha kinase inhibition

T1 sequence (Q16539 whole entry): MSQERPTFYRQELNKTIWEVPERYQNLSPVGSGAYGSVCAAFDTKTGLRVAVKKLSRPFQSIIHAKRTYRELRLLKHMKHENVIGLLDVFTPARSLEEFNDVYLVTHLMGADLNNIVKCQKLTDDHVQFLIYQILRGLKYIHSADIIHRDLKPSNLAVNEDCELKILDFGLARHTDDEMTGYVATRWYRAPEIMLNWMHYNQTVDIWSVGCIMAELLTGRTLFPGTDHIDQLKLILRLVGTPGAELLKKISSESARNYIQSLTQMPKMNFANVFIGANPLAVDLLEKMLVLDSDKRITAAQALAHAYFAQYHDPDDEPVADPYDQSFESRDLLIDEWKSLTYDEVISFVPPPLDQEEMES

SMILES	IC50 [1] [nM]	IC50 (in vitro P38-alpha kinase) [nM]	other results
O=S(=O)(NCCc1[nH]nc(-c2ccc(F)cc2)c1-c1ccncc1)c1cccc(Cl)c1 [Example B-1090]	< 100		
COc1ccc(Br)cc1S(=O)(=O)NCCCc1[nH]nc(-c2ccc(F)cc2)c1-c1ccncc1 [Example B-1279]		< 100	
Cc1c(-c2ccncc2)c(-c2ccc(F)cc2)nn1CC(=O)NCCCOC(C)C [Example B-2313]		42300	
O=S(=O)(NCc1[nH]nc(-c2ccc(F)cc2)c1-c1ccncc1)c1ccc(-c2ccccc2)cc1 [Example B-0256]		< 100	
O=S(=O)(c1ccccc1Br)N1CCC(c2[nH]nc(-c3ccc(F)cc3)c2-c2ccncc2)CC1 [Example B-1458]		950	
COc1ccc2nc(NC(=O)Cn3nc(-c4ccc(F)cc4)c(-c4ccncc4)c3C)sc2c1 [Example B-2414]			P38 alpha kinase IC50, uM or % inhib @ conc. (uM): % inhib: 86.0% @
CC(NC(=O)C1CCCN1)c1[nH]nc(-c2ccc(F)cc2)c1-c1ccncc1 (stereo not drawn) [Example B-0604]	300		
CC(NS(=O)(=O)c1cn(C)cn1)c1[nH]nc(-c2ccc(F)cc2)c1-c1ccncc1 (stereo not drawn) [Example B-0663]	880		
CC(NS(=O)(=O)c1cccc2ccccc12)c1[nH]nc(-c2ccc(F)cc2)c1-c1ccncc1 (stereo not drawn) [Example B-0618]	370		
C[C@@H](NS(=O)(=O)c1ccc(F)c(Cl)c1)c1[nH]nc(-c2ccc(F)cc2)c1-c1ccncc1 [Example B-0466]	< 100		
CC(C)c1ccc(S(=O)(=O)NCCc2[nH]nc(-c3ccc(F)cc3)c2-c2ccncc2)cc1 [Example B-1074]	230		
Cc1c(-c2ccncc2)c(-c2ccc(F)cc2)nn1CC(=O)Nc1cccc(Br)c1 [Example B-2426]			P38 alpha kinase IC50, uM or % inhib @ conc. (uM): % inhib: 88.0% @
CCCS(=O)(=O)N1CCC(c2[nH]nc(-c3ccc(F)cc3)c2-c2ccncc2)CC1 [Example B-1431]		360	
O=C(O)c1ccccc1S(=O)(=O)NCCc1[nH]nc(-c2ccc(F)cc2)c1-c1ccncc1 [Example B-1065]	560		
CN1CCCC1CCNC(=O)NCCCc1[nH]nc(-c2ccc(F)cc2)c1-c1ccncc1 (stereo not drawn) [Example B-1315]		55	
CC1(C)C2CCC1(S(=O)(=O)NCCc1[nH]nc(-c3ccc(F)cc3)c1-c1ccncc1)C(=O)C2 (stereo not drawn) [Example B-1100]	220		
Cc1c(-c2ccncc2)c(-c2ccc(F)cc2)nn1CC(=O)Nc1ccccc1 [Example B-2416]			P38 alpha kinase IC50, uM or % inhib @ conc. (uM): % inhib: 85.0% @
O=S(=O)(NCCc1[nH]nc(-c2ccc(F)cc2)c1-c1ccncc1)C(F)(F)F [Example B-1019]			P38 alpha kinase % inhib @ conc. (uM) (@ 1.0 uM): 82.0% @
CC(NC(=O)c1cc(F)ccc1F)c1[nH]nc(-c2ccc(F)cc2)c1-c1ccncc1 (stereo not drawn) [Example B-0697]	450		
Cc1c(-c2ccncc2)c(-c2ccc(F)cc2)nn1CC(=O)NC1CCN(Cc2ccccc2)CC1 [Example B-2332]			P38 alpha kinase % inhib @ conc.: 70.0% @
CCOC(=O)CCNC(=O)NCCc1[nH]nc(-c2ccc(F)cc2)c1-c1ccncc1 [Example B-0947]			P38 alpha kinase % inhib @ conc. (uM) (@ 1.0 uM): 69.0% @
Cc1ccc(C(=O)NCCCc2[nH]nc(-c3ccc(F)cc3)c2-c2ccncc2)cc1 [Example B-1179]			P38 alpha kinase % inhib @ conc. (uM) (@ 1.0 uM): 86.0% @
O=S(=O)(NC(Cc1ccccc1)c1[nH]nc(-c2ccc(F)cc2)c1-c1ccncc1)c1ccc(F)cc1 (stereo not drawn) [Example B-0752]	330		
O=S(=O)(NCCCc1[nH]nc(-c2ccc(F)cc2)c1-c1ccncc1)c1ccc(Cl)s1 [Example B-1278]		120	
O=C(NCCCc1[nH]nc(-c2ccc(F)cc2)c1-c1ccncc1)c1cc(F)c(F)cc1F [Example B-1350]		19	
Cc1cc(C)c(S(=O)(=O)NCCc2[nH]nc(-c3ccc(F)cc3)c2-c2ccncc2)c(C)c1 [Example B-1067]	1600		
Cc1c(-c2ccncc2)c(-c2ccc(F)cc2)nn1CC(=O)N(C)CCc1ccccc1 [Example B-2376]			P38 alpha kinase % inhib @ conc.: 32.0% @

SMILES	IC50 [1] [nM]	IC50 (in vitro P38-alpha kinase) [nM]	other results
Cc1ccc(F)cc1S(=O)(=O)NCCc1[nH]nc(-c2ccc(F)cc2)c1-c1ccncc1 [Example B-1079]	< 100		
CCN(CC)C(=O)NC(Cc1ccccc1)c1[nH]nc(-c2ccc(F)cc2)c1-c1ccncc1 (stereo not drawn) [Example B-0787]	1500		
Cc1c(-c2ccncc2)c(-c2ccc(F)cc2)nn1CC(=O)NCc1ccco1 [Example B-2282]		910	
CC(NS(=O)(=O)c1ccccc1S(C)(=O)=O)c1[nH]nc(-c2ccc(F)cc2)c1-c1ccncc1 (stereo not drawn) [Example B-0666]	170		
O=S(=O)(c1cccc2cnccc12)N1CCC(c2[nH]nc(-c3ccc(F)cc3)c2-c2ccncc2)CC1 [Example B-1443]		14	
CC(C)OC(=O)N1CCC(c2[nH]nc(-c3ccc(F)cc3)c2-c2ccncc2)CC1 [Example B-1425]		90	
CC(=O)Nc1nc(C)c(S(=O)(=O)NCCCc2[nH]nc(-c3ccc(F)cc3)c2-c2ccncc2)s1 [Example B-1235]		40	
O=C(NC(Cc1ccccc1)c1[nH]nc(-c2ccc(F)cc2)c1-c1ccncc1)c1cnc2ccccc2n1 (stereo not drawn) [Example B-0828]	7900		
O=S(=O)(NCCc1[nH]nc(-c2ccc(F)cc2)c1-c1ccncc1)c1ccc(Cl)s1 [Example B-1101]	26		
Cc1ccc(C(=O)NC(Cc2ccccc2)c2[nH]nc(-c3ccc(F)cc3)c2-c2ccncc2)cc1 (stereo not drawn) [Example B-0850]	1810		
O=C(NCc1[nH]nc(-c2ccc(F)cc2)c1-c1ccncc1)c1c(Cl)cccc1Cl [Example B-0294]		680	
CCOC(=O)N1CCC(c2[nH]nc(-c3ccc(F)cc3)c2-c2ccncc2)CC1 [Example B-1422]		580	
C=CCOC(=O)NCCc1[nH]nc(-c2ccc(F)cc2)c1-c1ccncc1 [Example B-0985]			P38 alpha kinase % inhib @ conc. (uM) (@ 1.0 uM): 86.0% @
O=C(NCCc1[nH]nc(-c2ccc(F)cc2)c1-c1ccncc1)c1ccc(F)cc1F [Example B-1152]	730		
CCCCS(=O)(=O)NC(C)c1[nH]nc(-c2ccc(F)cc2)c1-c1ccncc1 (stereo not drawn) [Example B-0571]	380		
O=C(NCCc1[nH]nc(-c2ccc(F)cc2)c1-c1ccncc1)Nc1ccccc1 [Example B-1043]			P38 alpha kinase % inhib @ conc. (uM) (@ 1.0 uM): 64.0% @
O=C(Nc1ccccc1)NC(Cc1ccccc1)c1[nH]nc(-c2ccc(F)cc2)c1-c1ccncc1 (stereo not drawn) [Example B-0782]	22000		
CC(NC(=O)C1CCCN1)c1[nH]nc(-c2ccc(F)cc2)c1-c1ccncc1 (stereo not drawn) [Example B-0605]	180		
Cc1c(-c2ccncc2)c(-c2ccc(F)cc2)nn1CC(=O)NCc1ccc(N(C)C)cc1 [Example B-2275]		2160	
O=S(=O)(c1ccc(Cl)c(Cl)c1)N1CCC(c2[nH]nc(-c3ccc(F)cc3)c2-c2ccncc2)CC1 [Example B-1452]		2410	
CCc1ccc(S(=O)(=O)NCCc2[nH]nc(-c3ccc(F)cc3)c2-c2ccncc2)cc1 [Example B-1088]	730		
CCN(CC)C(=O)NCCc1[nH]nc(-c2ccc(F)cc2)c1-c1ccncc1 [Example B-1048]			P38 alpha kinase % inhib @ conc. (uM) (@ 1.0 uM): 67.0% @
O=C(NCCCc1[nH]nc(-c2ccc(F)cc2)c1-c1ccncc1)c1ccc(F)c(C(F)(F)F)c1 [Example B-1341]		420	
C=CCOC(=O)N1CCC(c2[nH]nc(-c3ccc(F)cc3)c2-c2ccncc2)CC1 [Example B-1426]		190	
O=C(NCc1[nH]nc(-c2ccc(F)cc2)c1-c1ccncc1)c1ccccc1[N+](=O)[O-] [Example B-0024]			inhibition at 1 µM (@ 1.0 uM, read-out: P38 alpha kinase % inhib @ conc.): 94%
O=C(NCCc1[nH]nc(-c2ccc(F)cc2)c1-c1ccncc1)c1cc(F)c(F)cc1F [Example B-1149]	1550		
CC(C)c1ccc(S(=O)(=O)NCCCc2[nH]nc(-c3ccc(F)cc3)c2-c2ccncc2)cc1 [Example B-1251]		410	
